Measurements taken from patent US9670227B2, “Thienopyrimidine derivatives, a process for their preparation and pharmaceutical compositions containing them” (LES LABORATOIRES SERVIER, priority 2013, dated 2017).
Read-outs that look alike come from different tables or passages of the source.

Legend:
[1] = target: Mcl-1 protein (UniProtKB primary accession number: Q07820) (Homo sapiens, UniProt Q07820); experiment: Inhibition of Mcl-1 by fluorescence polarisation, Method 1; type: binding
Method in brief: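 Compounds were tested as 11-point serial dilutions at 5% final DMSO against 5 nM Mcl-1 with 1 nM fluorescein-labelled ligand in 10 mM HEPES, 150 mM NaCl, 0.05% Tween 20, pH 7.4. Relative binding potency was read by fluorescence polarisation.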

[2] = tested on: H929 multiple myeloma tumour line; experiment: In vitro cytotoxicity, Microculture Tetrazolium Assay; type: cell-based; settings: Homo sapiens, NCI-H929, 48 h, read-out: IC50 (μM) MTT H929
Method: The cytotoxicity studies were carried out on the H929 multiple myeloma tumour line.
The cells are distributed onto microplates and exposed to the test compounds for 48 hours.

[3] = fluorescence polarisation test, Method 2 values are underlined in the patent (underlining not visible here), read-out: IC50 (M) Mcl-1 FP
[4] = H929 cells, 48 hours exposure, MTT
[5] = fluorescence polarisation, Method 1, or Method 2, read-out: IC50 (M) Mcl-1 FP

Chain of Mcl-1 protein (Q07820 whole entry): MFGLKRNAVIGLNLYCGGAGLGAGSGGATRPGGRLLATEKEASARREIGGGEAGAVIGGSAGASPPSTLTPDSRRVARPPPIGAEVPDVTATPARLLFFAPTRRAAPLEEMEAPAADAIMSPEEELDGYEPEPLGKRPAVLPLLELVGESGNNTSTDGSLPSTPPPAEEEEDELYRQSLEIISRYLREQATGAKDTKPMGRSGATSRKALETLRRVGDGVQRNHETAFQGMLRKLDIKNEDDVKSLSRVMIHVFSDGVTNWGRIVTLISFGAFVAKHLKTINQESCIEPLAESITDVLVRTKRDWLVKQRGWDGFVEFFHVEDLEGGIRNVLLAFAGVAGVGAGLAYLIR

Row | Compound | IC50 [1, 3] [M] | IC50 [1, 5] [M] | IC50 [2, 4] [µM] | IC50 ([1]; IC50 (M) Mcl-1 FP, fluorescence polarisation test, Method 2 values are underlined in the patent (underlining not visible here)) [M] | IC50 [2] [µM]
1 | COc1cc(-c2sc3ncnc(OC(Cc4ccccc4OCC4CCCO4)C(=O)O)c3c2-c2ccc(OCCN3CCN(C)CC3)c(Cl)c2C)ccc1F [Example 379, (2R)-2-{[(5Sa)-5-{3-chloro-2-methyl-4-[2-(4-methylpiperazin-1-yl)ethoxy]phenyl}-6-(4-fluoro-3-methoxyphenyl)thieno[2,3-d]pyrimidin-4-yl]oxy}-3-{2-[(2R)-tetrahydrofuran-2-ylmethoxy]phenyl}propanoic acid] | 1.3e-08 | – | 0.174 | – | –
2 | CCn1nccc1COc1ccccc1CC(Oc1ncnc2sc(-c3ccc(F)c(OC)c3)c(-c3ccc(OCCN4CCN(C)CC4)c(Cl)c3C)c12)C(=O)O [Example 384, (2R)-2-{[(5Sa)-5-{3-chloro-2-methyl-4-[2-(4-methylpiperazin-1-yl)ethoxy]phenyl}-6-(4-fluoro-3-methoxyphenyl)thieno[2,3-d]pyrimidin-4-yl]oxy}-3-{2-[(1-ethyl-1H-pyrazol-5-yl)methoxy]phenyl}propanoic acid] | 3.8e-09 | – | 0.053 | – | –
3 | COc1cc(-c2sc3ncnc(OC(Cc4ccccc4OCc4cnccn4)C(=O)O)c3c2-c2ccc(OCCN3CCN(C)CC3)c(Cl)c2C)ccc1F [Example 386, (2R)-2-{[(5Sa)-5-{3-chloro-2-methyl-4-[2-(4-methylpiperazin-1-yl)ethoxy]phenyl}-6-(4-fluoro-3-methoxyphenyl)thieno[2,3-d]pyrimidin-4-yl]oxy}-3-[2-(pyrazin-2-ylmethoxy)phenyl]propanoic acid] | 1e-08 | – | 0.075 | – | –
4 | COCCOc1ccccc1CC(Oc1ncnc2sc(-c3ccc(F)c(OC)c3)c(-c3ccc(OCCN4CCN(C)CC4)c(Cl)c3C)c12)C(=O)O [Example 387, (2R)-2-{[(5Sa)-5-{3-chloro-2-methyl-4-[2-(4-methylpiperazin-1-yl)ethoxy]phenyl}-6-(4-fluoro-3-methoxyphenyl)thieno[2,3-d]pyrimidin-4-yl]oxy}-3-[2-(2-methoxyethoxy)phenyl]propanoic acid] | – | – | – | 4e-09 | 0.202
5 | CCc1sc2ncnc(OC(Cc3ccccc3)C(=O)O)c2c1-c1ccc(OCC(=O)N(C)C)c(Cl)c1C [Example 390, (2R)-2-[((5Sa)-5-{3-chloro-4-[2-(dimethylamino)-2-oxoethoxy]-2-methylphenyl}-6-ethylthieno[2,3-d]pyrimidin-4-yl)oxy]-3-phenylpropanoic acid] | 4e-08 | – | 20 | – | –
6 | CCc1sc2ncnc(OC(Cc3ccccc3)C(=O)O)c2c1-c1ccc(OCC(=O)N2CCCC2)c(Cl)c1C [Example 391, (2R)-2-[((5Sa)-5-{3-chloro-2-methyl-4-[2-oxo-2-(pyrrolidin-1-yl)ethoxy]phenyl}-6-ethylthieno[2,3-d]pyrimidin-4-yl)oxy]-3-phenylpropanoic acid] | 3.7e-08 | – | 22.1 | – | –
7 | CCc1sc2ncnc(OC(Cc3ccccc3)C(=O)O)c2c1-c1ccc(OCCc2cccnc2)c(Cl)c1C [Example 396, (2R)-2-[((5Sa)-5-{3-chloro-2-methyl-4-[2-(pyridin-3-yl)ethoxy]phenyl}-6-ethylthieno[2,3-d]pyrimidin-4-yl)oxy]-3-phenylpropanoic acid] | – | 9.9e-08 | 16.1 | – | –
8 | CCCCOc1ccc(-c2c(CC)sc3ncnc(OC(Cc4ccccc4)C(=O)O)c23)c(C)c1Cl [Example 398, (2R)-2-{[(5Sa)-5-(4-butoxy-3-chloro-2-methylphenyl)-6-ethylthieno[2,3-d]pyrimidin-4-yl]oxy}-3-phenylpropanoic acid] | – | 1.5e-06 | 23.8 | – | –
9 | CCc1sc2ncnc(OC(Cc3ccccc3)C(=O)O)c2c1-c1ccc(OCCCN2CCN(C)CC2)c(Cl)c1C [Example 402, (2R)-2-[((5Sa)-5-{3-chloro-2-methyl-4-[3-(4-methylpiperazin-1-yl)propoxy]phenyl}-6-ethylthieno[2,3-d]pyrimidin-4-yl)oxy]-3-phenylpropanoic acid] | – | 6.6e-08 | 10.4 | – | –
10 | CCc1sc2ncnc(OC(Cc3ccccc3)C(=O)O)c2c1-c1ccc(OCCN(C)C)c(Cl)c1C [Example 407, (2R)-2-[((5Sa)-5-{3-chloro-4-[2-(dimethylamino)ethoxy]-2-methylphenyl}-6-ethylthieno[2,3-d]pyrimidin-4-yl)oxy]-3-phenylpropanoic acid] | – | 1.1e-07 | 7.33 | – | –

Further lines, with some results ahead:

Row | IC50 [1, 3] [M] | IC50 [1, 5] [M] | Compound | IC50 [2, 4] [µM] | IC50 ([1]; IC50 (M) Mcl-1 FP, fluorescence polarisation test, Method 2 values are underlined in the patent (underlining not visible here)) [M] | IC50 [2] [µM]
11 | 3.2e-09 | – | COc1cc(-c2sc3ncnc(OC(Cc4ccccc4OC)C(=O)O)c3c2-c2ccc(OCCN3CCN(C)CC3)c(Cl)c2C)ccc1F [Example 378, (2R)-2-{[(5Sa)-5-{3-chloro-2-methyl-4-[2-(4-methylpiperazin-1-yl)ethoxy]phenyl}-6-(4-fluoro-3-methoxyphenyl)thieno[2,3-d]pyrimidin-4-yl]oxy}-3-(2-methoxyphenyl)propanoic acid] | 0.202 | – | –
12 | 1.1e-08 | – | COc1cc(-c2sc3ncnc(OC(Cc4ccccc4OCC(F)(F)F)C(=O)O)c3c2-c2ccc(OCCN3CCN(C)CC3)c(Cl)c2C)ccc1F [Example 380, (2R)-2-{[(5Sa)-5-{3-chloro-2-methyl-4-[2-(4-methylpiperazin-1-yl)ethoxy]phenyl}-6-(4-fluoro-3-methoxyphenyl)thieno[2,3-d]pyrimidin-4-yl]oxy}-3-[2-(2,2,2-trifluoroethoxy)phenyl]propanoic acid] | 0.162 | – | –
13 | 1.3e-08 | – | COc1cc(-c2sc3ncnc(OC(Cc4ccccc4OCc4ccccn4)C(=O)O)c3c2-c2ccc(OCCN3CCN(C)CC3)c(Cl)c2C)ccc1F [Example 381, (2R)-2-{[(5Sa)-5-{3-chloro-2-methyl-4-[2-(4-methylpiperazin-1-yl)ethoxy]phenyl}-6-(4-fluoro-3-methoxyphenyl)thieno[2,3-d]pyrimidin-4-yl]oxy}-3-[2-(pyridin-2-ylmethoxy)phenyl]propanoic acid] | 0.119 | – | –
14 | 7.1e-09 | – | COc1cc(-c2sc3ncnc(OC(Cc4ccccc4OCc4ccnc(C(F)(F)F)n4)C(=O)O)c3c2-c2ccc(OCCN3CCN(C)CC3)c(Cl)c2C)ccc1F [Example 382, (2R)-2-{[(5Sa)-5-{3-chloro-2-methyl-4-[2-(4-methylpiperazin-1-yl)ethoxy]phenyl}-6-(4-fluoro-3-methoxyphenyl)thieno[2,3-d]pyrimidin-4-yl]oxy}-3-(2-{[2-(trifluoromethyl)pyrimidin-4-yl]methoxy}phenyl)propanoic acid] | 0.033 | – | –
15 | 5.6e-09 | – | COc1nccc(COc2ccccc2CC(Oc2ncnc3sc(-c4ccc(F)c(OC)c4)c(-c4ccc(OCCN5CCN(C)CC5)c(Cl)c4C)c23)C(=O)O)n1 [Example 383, (2R)-2-{[(5Sa)-5-{3-chloro-2-methyl-4-[2-(4-methylpiperazin-1-yl)ethoxy]phenyl}-6-(4-fluoro-3-methoxyphenyl)thieno[2,3-d]pyrimidin-4-yl]oxy}-3-{2-[(2-methoxypyrimidin-4-yl)methoxy]phenyl}propanoic acid] | 0.03 | – | –
16 | 3.5e-09 | – | CCCn1nccc1COc1ccccc1CC(Oc1ncnc2sc(-c3ccc(F)c(OC)c3)c(-c3ccc(OCCN4CCN(C)CC4)c(Cl)c3C)c12)C(=O)O [Example 385, (2R)-2-{[(5Sa)-5-{3-chloro-2-methyl-4-[2-(4-methylpiperazin-1-yl)ethoxy]phenyl}-6-(4-fluoro-3-methoxyphenyl)thieno[2,3-d]pyrimidin-4-yl]oxy}-3-{2-[(1-propyl-1H-pyrazol-5-yl)methoxy]phenyl}propanoic acid] | 0.048 | – | –
17 | – | 4.1e-08 | CCc1sc2ncnc(OC(Cc3ccccc3)C(=O)O)c2c1-c1ccc(OCC(=O)N2CCOCC2)c(Cl)c1C [Example 393, (2R)-2-[((5Sa)-5-{3-chloro-2-methyl-4-[2-(morpholin-4-yl)-2-oxoethoxy]phenyl}-6-ethylthieno[2,3-d]pyrimidin-4-yl)oxy]-3-phenylpropanoic acid] | 16.6 | – | –
18 | – | 8e-09 | CCc1sc2ncnc(OC(Cc3ccccc3)C(=O)O)c2c1-c1ccc(OCCc2ccncc2)c(Cl)c1C [Example 397, (2R)-2-[((5Sa)-5-{3-chloro-2-methyl-4-[2-(pyridin-4-yl)ethoxy]phenyl}-6-ethylthieno[2,3-d]pyrimidin-4-yl)oxy]-3-phenylpropanoic acid] | 15.7 | – | –
19 | – | 8.4e-08 | CCc1sc2ncnc(OC(Cc3ccccc3)C(=O)O)c2c1-c1ccc(OCCCN(C)C)c(Cl)c1C [Example 400, (2R)-2-[((5Sa)-5-{3-chloro-4-[3-(dimethylamino)propoxy]-2-methylphenyl}-6-ethylthieno[2,3-d]pyrimidin-4-yl)oxy]-3-phenylpropanoic acid] | 14.4 | – | –
20 | – | 4.9e-08 | CCc1sc2ncnc(OC(Cc3ccccc3)C(=O)O)c2c1-c1ccc(OCCCN2CCCC2=O)c(Cl)c1C [Example 401, (2R)-2-[((5Sa)-5-{3-chloro-2-methyl-4-[3-(2-oxopyrrolidin-1-yl)propoxy]phenyl}-6-ethylthieno[2,3-d]pyrimidin-4-yl)oxy]-3-phenylpropanoic acid] | 22.3 | – | –
21 | – | 5.7e-08 | CCNC(=O)NCCCOc1ccc(-c2c(CC)sc3ncnc(OC(Cc4ccccc4)C(=O)O)c23)c(C)c1Cl [Example 404, (2R)-2-{[(5Sa)-5-(3-chloro-4-{3-[(ethylcarbamoyl)amino]propoxy}-2-methylphenyl)-6-ethylthieno[2,3-d]pyrimidin-4-yl]oxy}-3-phenylpropanoic acid] | 21.6 | – | –
22 | – | 3.5e-08 | CCc1sc2ncnc(OC(Cc3ccccc3)C(=O)O)c2c1-c1ccc(OCCCS(C)(=O)=O)c(Cl)c1C [Example 406, (2R)-2-[((5Sa)-5-{3-chloro-2-methyl-4-[3-(methylsulfonyl)propoxy]phenyl}-6-ethylthieno[2,3-d]pyrimidin-4-yl)oxy]-3-phenylpropanoic acid] | 21.9 | – | –
